Tests used:
[1] = tested on: Beckmann Access (commercial cortisol immunoassay); assay: Synthetic glucocorticoid cross reactivity in Beckman Access cortisol immunoassay; type: binding; set-up: Access Cortisol Value: unit: ng/mL; settings: for Access Cortisol Value: Method 1: all synthetics present at 2000 ng/mL, apparent cortisol read by Beckmann Access; for Percent cross reactivity, Access: determined by 2000 ng/mL sample; for % Reactivity (Method 2): serial dilutions 1:2, 1:4, 1:8 and 1:16, linear analysis evaluation; for % Reactivity (Method 1): synthetic present at 2000 ng/mL, (cortisol value)/(concentration of analyte) x 100%
Protocol: Initial synthetic glucocorticoid antibody cross reactivity data included LC-MS/MS analysis of patient samples was followed by analysis via the Beckman immunoassay system, and relative cross reactivities were calculated for each of the synthetic glucocorticoids of interest. Cross reactivities were also calculated based on a linearity study of each of the major cross reactive synthetic glucocorticoids to ensure that the values obtained for each were viable. (Table 1).
(§1) LC-MS/MS analysis of patient samples was followed by analysis using the Beckman Access (commercial assay), and relative cross reactivities were calculated for each of the synthetic glucocorticoids of interest. Synthetic positive patient samples were then mimicked in stripped serum for cortisol, cortisone and exogenous synthetic glucocorticoids. […] The linear relationship for these systems was examined and illustrated.

[2] = tested on: Antibody 9 (clone F4P1A3 from EMD Biosciences); assay: Cross reactivity on anti-cortisol antibody microarray, antibody 9; type: binding; settings: for Percent cross reactivity, antibody 9: determined by 2000 ng/mL sample; for % cross reactivity, antibody 9: from slopes of ([apparent cortisol] vs [cross reactant])
Description: (§2) The independent variables, these are x1 and x2 in the model are the various concentrations levels, where x1 is the concentration level of cortisol and x2 is the concentration level of the cross-reactant (in this case either 6AMP or prednisolone). The dependent variable, i.e. the variable that we are trying to predict, is the “apparent” cortisol concentration, which is estimated from the concentration-signal 4 parameter logistic regression model. […] These equations are given by,
(§3) In terms of the model β1 is interpreted as the amount that the “apparent” cortisol is increase per ng/ml increase of cortisol and similarly β2 is interpreted as the amount that the “apparent” cortisol is increased per ng/ml increase of cross-reactant. Finally to estimate the percent cross action it is given by:
(§4) The antibody concentrations were 125 ug/mL in buffered solutions comprising phosphate-buffered saline (PBS) and 1× Whatman Protein Arraying Buffer. The antibody solutions were applied to the slide surface using a Scienion sciflexarryer S5 piezo printer. The average spot sizes were 150 um. The antibodies within a sub array were printed in replicates of five spots, and each slide contained twelve sub arrays arranged in two columns of six. The relative spacing of the sub arrays was nine millimeters, equivalent to the spacing of a 96-well micro titer plate.
(§5) The micro-array slides were assembled with a superstructure that creates individual wells that surround the sub array (Slide Incubation Chambers, Whatman). The slides were blocked for one hour with micro array blocking buffer (VWR) and then washed with TRIS-buffered saline with Tween-20 (TBST). Cortisol-containing samples or calibrators were diluted 1 to 20 into a buffered solution that contained the following: TBST, 0.1% SDS, 3.3 nM cortisol 3-CMO Alexa Fluor 555, and 3.3 nM cortisol 21-HS Alexa Fluor 647. One-hundred micro liters of the assay mixture was applied to an individual well on the micro-array slide, and the assay was allowed to proceed for one hour at room temperature in the dark with gentle shaking on a micro-titer plate shaker. The assay mixture was removed, and the slides were washed with TBST, water, and then dried by spinning in a centrifuge. The intensities of fluorescence associated with each spot was quantified using a micro-array reader such as an Axon 4000B or 4200AL. The spot intensities for the calibrators were used to generate a standard curve by fitting the data to a four-parameter logistic model. The concentrations of the cortisol-containing patient samples or synthetic samples were interpolated using the logistic-fit equation.
(§6) Subsequently, several cortisol antibodies were synthesized and relative cross reactivities were determined for the synthetic glucocorticoids obtained via the same described the Beckmann system (Tables 4 & 5). Cortisol antibodies should have specificity to distinguish the differences in the A ring of the steroid molecules shown below.

[3] = tested on: antibody 17; assay: Cross reactivity on anti-cortisol antibody microarray, antibody 17; type: binding; settings: for Percent cross reactivity, antibody 17: determined by 2000 ng/mL sample; for % cross reactivity, antibody 17: from slopes of ([apparent cortisol] vs [cross reactant])
Description: (§7) This model is used to estimate the cross-reaction percentage. The independent variables, these are x1 and x2 in the model are the various concentrations levels, where x1 is the concentration level of cortisol and x2 is the concentration level of the cross-reactant (in this case either 6AMP or prednisolone). The dependent variable, i.e. the variable that we are trying to predict, is the “apparent” cortisol concentration, which is estimated from the concentration-signal 4 parameter logistic regression model. We fit this model using standard multiple linear regression methods to estimate β1 and β2. These equations are given by,
as §3, §4, §5, §6

[4] = tested on: Antibody 10 (clone A29220314P from BiosPacific); assay: Cross reactivity on anti-cortisol antibody microarray, antibody 10; type: binding; settings: for Percent cross reactivity, antibody 10: determined by 2000 ng/mL sample; for % cross reactivity, antibody 10: from slopes of ([apparent cortisol] vs [cross reactant])
Description: as §2, §3, §4, §5, §6

[5] = tested on: antibody 13; assay: Cross reactivity on anti-cortisol antibody microarray, antibody 13; type: binding; settings: for Percent cross reactivity, antibody 13: determined by 2000 ng/mL sample; for % cross reactivity, antibody 13: from slopes of ([apparent cortisol] vs [cross reactant])
Description: as §7, §3, §4, §5, §6

[6] = LC-MS/MS analysis of synthetic-positive patient samples; type: in vivo; settings: population of positive patient samples
Description: In the present method mass spectrometric methods were used to determine actual analyte levels in clinical patient populations. Some of these samples were subjected to the current immunoassay systems and the interference relationship was established. After identifying the most commonly present exogenous drugs present in the samples, this information was used toward establishing an assay, free from the limitations of the mass spec. deconvolution, that gives an accurate depiction of the analyte, such as cortisol, levels in a patient sample.
A population was drawn of positive synthetic patient samples once cross reactivities were determined for individual steroids (Table 2).
as §1

[7] = tested on: Antibody 7 (clone XM210 from Abcam); assay: Cross reactivity on anti-cortisol antibody microarray, antibody 7; type: binding; settings: for Percent cross reactivity, antibody 7: determined by 2000 ng/mL sample; for % cross reactivity, antibody 7: from slopes of ([apparent cortisol] vs [cross reactant])
Description: as §2, §3, §4
as §5, with “equation. […]” for “equation.”

[8] = tested on: antibody ECB; assay: Cross reactivity on anti-cortisol antibody microarray, antibody ECB; type: binding; settings: from slopes of ([apparent cortisol] vs [cross reactant])
Description: as §7
(§8) In terms of the model β1 is interpreted as the amount that the “apparent” cortisol is increase per ng/ml increase of cortisol and similarly β2 is interpreted as the amount that the “apparent” cortisol is increased per ng/ml increase of cross-reactant. […]
(§9) The micro-array slides were assembled with a superstructure that creates individual wells that surround the sub array (Slide Incubation Chambers, Whatman). […] The intensities of fluorescence associated with each spot was quantified using a micro-array reader such as an Axon 4000B or 4200AL. […]
(§10) Subsequently, several cortisol antibodies were synthesized and relative cross reactivities were determined for the synthetic glucocorticoids obtained via the same described the Beckmann system (Tables 4 & 5). […]

[9] = tested on: antibody 21509; assay: Cross reactivity on anti-cortisol antibody microarray, antibody 21509; type: binding; settings: from slopes of ([apparent cortisol] vs [cross reactant])
Description: as §7, §8, §9, §10

| Structure (SMILES) | Access Cortisol Value [1] | Percent cross reactivity, Access [1] | % Reactivity (Method 2) [1] | % Reactivity (Method 1) [1] | Percent cross reactivity, antibody 9 [2] | % cross reactivity, antibody 9 [2] | Percent cross reactivity, antibody 17 [3] | % cross reactivity, antibody 17 [3] | Percent cross reactivity, antibody 10 [4] | % cross reactivity, antibody 10 [4] | Percent cross reactivity, antibody 13 [5] | % cross reactivity, antibody 13 [5] | Range of steroid concentration in synthetic positive patient samples [6] | Percent cross reactivity, antibody 7 [7] | % cross reactivity, antibody 7 [7] | % cross reactivity, antibody ECB [8] | % cross reactivity, antibody 21509 [9] |
| --- | --- | --- | --- | --- | --- | --- | --- | --- | --- | --- | --- | --- | --- | --- | --- | --- | --- |
| C[C@H]1C[C@@H]2[C@H]([C@@H](O)C[C@@]3(C)[C@H]2CC[C@]3(O)C(=O)CO)[C@@]2(C)C=CC(=O)C=C12 [SYN-1, 6-a-methyl prednisolone] | 34.4 | 2% | 1.4% | 1.72% | 2% | 2% | 3% | 1% | high | 109% | 10% | 6% | 1.7 to 130 ng/mL | 9% | 7% |  |  |
| C[C@]12C=CC(=O)C=C1CC[C@@H]1[C@@H]2C(=O)C[C@@]2(C)[C@H]1CC[C@]2(O)C(=O)CO [SYN-2, Prednisone] | 50.8 | 3% | 2.2% | 2.54% | 21% | 26% | 20% |  | 0% | 1% | 1% |  | 1.9 to 72 ng/mL | 1% | <1% | 1% | <1% |
| CC1(C)O[C@@H]2C[C@H]3[C@@H]4CCC5=CC(=O)C=C[C@]5(C)[C@@]4(F)[C@@H](O)C[C@]3(C)[C@]2(C(=O)CO)O1 [SYN-3, Triamcinolone acetonide] |  |  |  |  |  |  |  |  |  |  |  |  | 0.3 to 2.3 ng/mL |  |  |  |  |
| C[C@]12C=CC(=O)C=C1CC[C@H]1[C@@H]3C[C@@H](O)[C@](O)(C(=O)CO)[C@@]3(C)C[C@H](O)[C@@]12F [SYN-4, Triamcinolone] | 1.1 | 0% |  | 0.055% | 1% |  | 0% |  | 0% |  | 0% |  |  | 0% |  |  |  |
| C[C@]12CCC(=O)C=C1CC[C@@H]1[C@@H]2C(=O)C[C@@]2(C)[C@H]1CC[C@]2(O)C(=O)CO [SYN-6, Cortisone] | 94 | 5% | 4.5% | 4.7% | 13% | 15% | 11% | 13% | 0% | <1% | 1% | 1% |  | 1% | 1% |  |  |
| C[C@]12C=CC(=O)C=C1CC[C@@H]1[C@@H]2[C@@H](O)C[C@@]2(C)[C@H]1CC[C@]2(O)C(=O)CO [SYN-7, Prednisolone] | 420.7 | 21% | 20.8% | 21.035% | 15% | 37% | 14% | 35% | 68% | 133% | 4% | 5% | 0.6 to 640 ng/mL | 5% | 5% |  |  |
| CC(=O)[C@@]1(O)CC[C@H]2[C@@H]3C[C@H](C)C4=CC(=O)C=C[C@]4(C)[C@@]3(F)[C@@H](O)C[C@@]21C [SYN-8, Fluorometholone] | 0.8 | 0% |  | 0.04% | 0% |  | 0% |  | 6% |  | 0% |  |  | 0% |  |  |  |
| C[C@@H]1C[C@H]2[C@@H]3CCC4=CC(=O)C=C[C@]4(C)[C@@]3(F)[C@@H](O)C[C@]2(C)[C@@]1(O)C(=O)CO [SYN-10, Dexamethasone] |  |  |  |  |  |  |  |  |  |  |  |  | 1.0 to 14.0 ng/mL |  |  |  |  |

Source: US20110136259A1, “IMMUNOASSAY FOR CROSS-REACTING SUBSTANCES” (LIFE TECHNOLOGIES CORPORATION, priority 2007, published 2011)
